Results on 14 compounds are retold here after paper PMC8449414, “Rational design of ASCT2 inhibitors using an integrated experimental-computational approach” (Proceedings of the National Academy of Sciences of the …, 2021).

Assay [1] deals with T1, rASCT2 (Rattus norvegicus, UniProt D3ZJ25).
T1 construct: expressed in transfected cells; host or cells: HEK293 (ATCC CRL-11268), transient transfection
T1 sequence (D3ZJ25 1-555): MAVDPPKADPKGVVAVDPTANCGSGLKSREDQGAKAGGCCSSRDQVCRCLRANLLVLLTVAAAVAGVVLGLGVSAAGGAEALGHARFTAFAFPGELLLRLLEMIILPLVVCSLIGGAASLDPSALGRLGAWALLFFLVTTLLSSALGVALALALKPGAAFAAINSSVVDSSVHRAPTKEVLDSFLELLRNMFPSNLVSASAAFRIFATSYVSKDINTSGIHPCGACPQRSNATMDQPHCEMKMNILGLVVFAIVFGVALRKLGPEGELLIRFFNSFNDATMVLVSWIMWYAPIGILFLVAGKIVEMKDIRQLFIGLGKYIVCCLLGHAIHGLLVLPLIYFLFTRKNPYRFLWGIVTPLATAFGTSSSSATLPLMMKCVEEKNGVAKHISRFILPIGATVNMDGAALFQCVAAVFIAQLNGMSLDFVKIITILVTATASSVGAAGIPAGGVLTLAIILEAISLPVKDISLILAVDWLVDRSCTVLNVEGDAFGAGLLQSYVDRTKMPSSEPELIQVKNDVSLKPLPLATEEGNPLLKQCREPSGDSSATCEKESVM
The assay is described as follows: Electrophysiology: inhibition of leak anion current in transfected HEK293 cells. The format is cell-based. The settings on record: HEK293 cells, 0 mV, 130 mM NaSCN internal, 140 mM NaCl external, No current = no inhibition of anion leak current up to highest concentration tested (§ 20-50, || 100-400, # 1500-2500 µM); for Ki: read-out: Binding affinity Ki (apparent Ki). As to the method:
(§1) Cell culture and transfection
(§2) Human embryonic kidney 293 (HEK293, ATCC CRL -11268) cells were cultured in DMEM media supplemented with 10% (v/v) fetal bovine serum (FBS), 2 mM glutamine, 1% penicillin streptomycin solution, 1 mM sodium pyruvate and non -essential amino acids. Cells were maintained at 370C in a fully humidified atmosphere containing 5% CO2. rASCT2, hASCT2, hASCT1, EAAT1, EAAT2, EAAT3, EAAT5 and YFP complementary DNAs were each used to transiently transfect HEK293 using POLYPLUS Jet-prime transfection reagent. Cells were analyzed using electrophysiological techniques 24-40 hours after transfection.
(§3) Electrophysiological techniques
(§4) Electrophysiological experiments were performed as described previously 1,2. Stock solutions of inhibitor was prepared in dimethyl sulfoxide (DMSO) up to 100 mM.
(§5) Dilutions to working concentrations were made using external buffer. The highest

Assay [2] has as its target T2, hASCT2 (Homo sapiens, UniProt Q15758).
T2 construct: expressed in transfected cells; host or cells: HEK293 (ATCC CRL-11268), transient transfection
T2 sequence (Q15758 1-541): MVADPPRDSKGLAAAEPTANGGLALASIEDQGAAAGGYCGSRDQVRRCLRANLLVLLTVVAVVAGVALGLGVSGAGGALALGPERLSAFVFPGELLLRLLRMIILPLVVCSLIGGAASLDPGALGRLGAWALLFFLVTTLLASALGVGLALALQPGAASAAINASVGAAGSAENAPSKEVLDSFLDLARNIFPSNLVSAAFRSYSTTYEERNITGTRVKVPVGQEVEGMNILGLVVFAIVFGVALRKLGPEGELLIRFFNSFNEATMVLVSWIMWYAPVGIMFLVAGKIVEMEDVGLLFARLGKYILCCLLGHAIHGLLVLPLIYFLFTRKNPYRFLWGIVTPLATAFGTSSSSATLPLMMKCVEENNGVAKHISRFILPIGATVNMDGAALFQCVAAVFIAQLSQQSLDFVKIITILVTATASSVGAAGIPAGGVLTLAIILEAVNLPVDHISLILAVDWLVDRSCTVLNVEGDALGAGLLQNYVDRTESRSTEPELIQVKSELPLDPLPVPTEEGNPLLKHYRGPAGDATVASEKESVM
The description is as above. The format is cell-based. The settings on record: for activity (in words, structure activity relationship): ASCT2, species not given; for Binding affinity Ki (apparent Ki) / Ki: HEK293 cells, 0 mV, 130 mM NaSCN internal, 140 mM NaCl external, No current = no inhibition of anion leak current up to highest concentration tested (§ 20-50, || 100-400, # 1500-2500 µM); for Ki: read-out: Binding affinity Ki (apparent Ki); for selectivity for hASCT2 over rEAAT1: ratio of Ki, hASCT2 versus rEAAT1. As to the method:
as §1, §2, §3, §4, §5

Molecules are shown by their SMILES. Values joined by “and” are separate entries in the source; they are usually repeats but may differ in a detail not shown here. Equal values may be shown once. A value given as a limit tells only on which side of the number the result lay.

`O=C(O[C@@H]1CN[C@H](C(=O)O)C1)c1ccccc1-c1ccccc1` [ERA-3]: the “Binding affinity Ki (apparent Ki)” value in assay [1] is on record as “No current”. In addition, in assay [2], the “activity (in words, structure activity relationship)” value was “inactive” and the “Binding affinity Ki (apparent Ki)” value is reported as “No current”.

For the compound `O=C(O[C@@H]1CN[C@H](C(=O)O)C1)c1ccc(-c2ccc(F)cc2)cc1` [ERA-4], the Ki worked out at 0.65 ± 0.04 µM in assay [1] and 0.74 ± 0.09 µM in assay [2].

On to `O=C(O[C@@H]1CN[C@H](C(=O)O)C1)c1ccc(-c2ccc(C(F)(F)F)cc2)cc1` [ERA-5], for which the Ki in assay [1] turned out to be 0.27 ± 0.05 µM; in assay [2], 1.05 ± 0.21 µM.

In the case of `Cc1ccccc1-c1ccc(C(=O)O[C@@H]2CN[C@H](C(=O)O)C2)cc1` [ERA-6], the Ki in assay [1] came out at 0.97 ± 0.08 µM; in assay [2] it was 1.12 ± 0.11 µM.

As to `O=C(O[C@@H]1CN[C@H](C(=O)O)C1)c1ccc(C(O)c2ccccc2)cc1` (some centres unmarked) [ERA-9], in assay [1], the Ki stood at 18.8 ± 4.97 µM. For the same compound, in assay [2], the Ki is 5.65 µM and 5.7 µM; the “selectivity for hASCT2 over rEAAT1” value is “sevenfold”.

`O=C(Nc1ccc(C(=O)O[C@@H]2CN[C@H](C(=O)O)C2)cc1)c1ccc(C(F)(F)F)cc1` [ERA-11]: the Ki in assay [1] came out at 3.37 ± 0.41 µM. In assay [2], the Ki turned out to be 2.94 ± 0.93 µM and the “selectivity for hASCT2 over rEAAT1” value is given as “threefold”.

Turning to `O=C(O[C@@H]1CN[C@H](C(=O)O)C1)c1ccc(Oc2ccccc2)cc1` [ERA-16], the Ki in assay [1] worked out at 3.68 ± 0.73 µM; in assay [2], 4.17 ± 0.46 µM.

With `N[C@@H](COC(=O)c1ccc(NC(=O)c2ccccc2)cc1)C(=O)O` [ERA-21], the Ki turned out to be 4.33 ± 1.3 µM in assay [1] and 22.6 ± 3.66 µM in assay [2].

On to `N[C@@H](COC(=O)c1ccccc1)C(=O)O` [ERA-25], for which the Ki in assay [1] is 290 ± 16.5 µM; in assay [2] it was 186 ± 17.2 µM.

Regarding `N[C@@H](COC(=O)c1cccnc1)C(=O)O` [ERA-28], the Ki in assay [1] was 266 ± 42.7 µM; in assay [2], 690 ± 54.2 µM.

Turning to `O=C(O[C@@H]1CN[C@H](C(=O)O)C1)C(c1ccccc1)c1ccccc1` [ERA-29], the “Binding affinity Ki (apparent Ki)” value in assay [1] and in assay [2] was “No current” each time. In assay [2], the “activity (in words, structure activity relationship)” value is “no activity”.

For the compound `O=C(O[C@@H]1CN[C@H](C(=O)O)C1)c1ccc(OCc2ccccc2)cc1` [ERA-31], the Ki in assay [1] was determined as 8.17 ± 1.05 µM. In addition, in assay [2], the “Binding affinity Ki (apparent Ki)” value is given as “No current”.

On to `O=C(O[C@H]1CN[C@H](C(=O)O)C1)c1ccc(C(=O)c2ccccc2)cc1` [ERA-35], for which the values for the Ki in assay [1] and in assay [2] were 121 ± 29.9 µM and > 500 µM, respectively.

On to `O=C(O[C@@H]1CN[C@H](C(=O)O)C1)c1ccc(-c2ccccc2)cc1` [Lc-BPE, L-cis hydroxyproline biphenyl ester], for which the Ki is 0.74 ± 0.11 µM in assay [1] and 0.86 ± 0.11 µM in assay [2].
